In patent US5444042A, “Method of treatment of neurodegeneration with calpain inhibitors” (Cortex Pharmaceuticals, priority 1994, dated 1995):
Where two headings read alike, the source gives them in different places.

Key:
[1] = molecular target: T1, Papain (Carica papaya, UniProt P00784); assay: Papain inhibition, Ki by Dixon plot (Table PKC1); type: biochemical; settings: 5 mM cysteine, 25° C.
T1 sequence (P00784 134-345): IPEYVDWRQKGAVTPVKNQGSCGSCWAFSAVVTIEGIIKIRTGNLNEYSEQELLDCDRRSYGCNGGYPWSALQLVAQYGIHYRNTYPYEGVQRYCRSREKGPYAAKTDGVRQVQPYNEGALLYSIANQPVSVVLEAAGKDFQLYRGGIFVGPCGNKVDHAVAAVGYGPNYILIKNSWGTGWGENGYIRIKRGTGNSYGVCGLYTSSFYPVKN
Protocol: (§1) Various concentrations of inhibitors in dimethylsulfoxide (DMSO) were added to the assay mixture, which contained buffer and substrate. The reaction was started by the addition of the enzyme and the hydrolysis rates were followed spectrophotometrically or fluorimetrically. 88 mM KH2 PO4, 12 mM Na2 HPO4, 1.33 mM EDTA, 2.7 mM cysteine, pH 6.0 was used as a buffer for cathepsin B; and 20 mM Hepes, 10 mM CaCl2, 10 mM β-mercaptoethanol, pH 7.2 buffer was utilized for calpain I and calpain II.
(§2) All peptide thioester hydrolysis rates were measured with assay mixtures containing 4,4'-dithiodipyridine [e324=19800 M-1 cm-1; Grasetti & Murray, Arch. Biochem. Biophys. 119, pp 41-49 (1967)]. Papain was assayed with Bz-Arg-AMC or Bz-Arg-NA [Kanaoka et al., Chem. Pharm. Bull. 25, 3126-3128 (1977)], and the AMC (7-amino-4-methylcoumarin) release was followed fluorimetrically (excitation at 380 nm, and emission at 460 nm). Cathepsin B was assayed with Z-Arg-Arg-AFC [Barrett and Kirschke, Methods Enzymol. 80, 535-561 (1981)], and the AFC (7-amino-4-trifluoromethylcoumarin) release was followed fluorimetrically (excitation at 400 nm, and emission at 505 nm). Calpain I from human erythrocytes and calpain II from rabbit were assayed using Suc-Leu-Tyr-AMC [Sasaki et al., J. Biol. Chem. 259, 12489-12494 (1984), hereby incorporated by reference], and the AMC (7-amino-4-methylcoumarin) release was followed fluorimetrically (excitation at 380 nm, and emission at 460 nm). Enzymatic hydrolysis rates were measured at various substrate and inhibitor concentrations, and Ki values were determined by Dixon plot.
The inhibition constants for papain shown in Table PKC1 were measured in 0.05M Tris-HCl, pH 7.5 buffer, containing 2 mM EDTA, 5 mM cysteine (freshly prepared), 1% DMSO, at 25° C., using N^α -Benzoyl-Arg-AMC as a substrate, except that those values of inhibition constants for papain marked with an "e" in Table PKC1 were measured in 50 mM Tris-HCl, pH 7.5 buffer, containing 20 mM EDTA, 5 mM cysteine, 9% DMSO, at 25° C., using N^α -Benzoyl-Arg-NA as a substrate.

[2] = molecular target: T2, Cathepsin B (Bos taurus, UniProt P07688); assay: Cathepsin B inhibition, Z-Arg-Arg-AFC (Table PKC1); type: biochemical; settings: pH 6.0 phosphate buffer, substrate Z-Arg-Arg-AFC; read-out: Ki CB (Cathepsin B)
Protocol: as §1, §2

[3] = test system: Calpain in crude brain extracts; assay: Ca2+-stimulated spectrin proteolysis in crude brain extracts (Example 2); type: biochemical; settings: 100 μM
Protocol: The activity of Calpain in crude brain extracts was measured by examining the Ca^2+ -stimulated proteolysis of the endogenous substrate spectrin. Brain tissue was homogenized in 10 mM Tris pH=7.4, 0.32M sucrose, 1 mM EGTA, 1 mM dithiothreitol and the nuclei and debris removed by low speed centrifugation. […] Proteolysis of spectrin was evaluated by western blot as described by Seubert, et at. (Brain Research, 459:226-232, 1988), the disclosure of which is hereby incorporated by reference. Briefly, a known quantity of a spectrin-containing sample treated with Calpain is separated by SDS-PAGE and immunoblotted with anti-spectrin antibody. The amount of spectrin immunoreactivity found corresponding to the characteristic BDP's is indicative of the amount of […] activity present in the sample. An examplary method for quantitating BDP's is to assay Spectrin BDP's by homogenizing brain parts in 20 mM Tris pH=7.2, 0.32M sucrose, 50 μM Ac-Leu-Leu-nLeu-H on ice. Homogenates are then mixed 1:1 with 10% SDS, 5% β-mercaptoethanol, 10% glycerol, 10 mM Tris pH=8.0, 0.5% bromophenolblue, heated to 95° C., and subjected to electrophoresis in 41/2% polyacrylamide gels. The proteins in the gels are transferred to nitrocellulose and the spectrin and BDP's detected using a rabbit polyclonal anti-spectrin antibody and established immunodetection methods. The amount of spectrin and BDP's in each sample can be quantitated by densitrometric scanning of the developed nitrocellulose.

[4] = test system: Calpain within platelets; assay: Platelet membrane permeation assay, spectrin proteolysis (Examples 4A, 4B); type: cell-based, rat; settings: for effect on intracellular (platelet) Calpain: concentration not given; for IC50: concentration at which 50% of the Calpain activation present in controls occurred; for inhibition of Calpain within platelets: A23187 1 μM
Protocol: Platelets were isolated by a modification of the method of Ferrell and Martin, J Biol. Chem., 264:20723-20729 (1989), the disclosure of which is hereby incorporated by reference. Blood (15-20 ml) was drawn from male Sprague-Dawley rats into 100 mM EDTA-citrate containing 10 units heparin, and centrifuged 30 minutes at 1600 rpm at room temperature. The plasma was resuspended in 15 ml buffer 1 (136 mM NaCl, 2.7 mM KCl, 0.42 mM NaH2 PO4, 12 mM NaHCO3, 2 mM MgCl2, 2 mg/ml BSA (Sigma), 5.6 mM glucose, 22 mM Na3 Citrate pH 6.5) and platelets were isolated at 2200 rpm at room temperature of 25 minutes. Platelets were resuspended to 10^7 cells/ml in buffer 2 (136 mM NaCl, 2.7 mM KCl, 0.42 NaH2 PO4, 12 mM NaHCO3, 2 mM MgCl, 1 mg/ml BSA, 5.6 mM glucose, 20 mM HEPES pH 7.4) and allowed to "rest" for a minimum of 10 minutes at room temperature before use.
Platelets were incubated for 5 minutes in the presence of inhibitor. In order to provide sufficient intracellular calcium to activate Calpain, the calcium ionophore A23187 was added to a final concentration of 1 μM. After a further 5 minute incubation, the platelets were harvested by centrifugation (1 min 10,000×g) and resuspended in 10% sodium dodecyl sulfate, 10 mM Tris pH=8.0, 5% β-mercaptoethanol, 0.02% bromophenol blue, and heated to 95° C. for 5 min. Samples were subjected to SDS-PAGE on 6% mini gels and transferred to nitrocellulose (Schleicher and Schuell BAS3) for 2 hours at 100 mA/gel in an LKB Novablot. Filters were blocked for 10 minutes in 0.25% gelatin, 1% BSA, 0.25% Triton X100, 0.9% NaCl, 10 mM Tris-Cl pH 7.5, incubated overnight in the same solution containing antibody to rat spectrin, washed 3×10 minutes with 10 mM Tris-Cl pH 7.5, 0.5 % Triton X100, incubated 4 hours in wash buffer plus alkaline phosphatase conjugated goat anti-rabbit antibody (Biorad), and washed as above. Filters were developed using the Biorad AP conjugate substrate kit. Spectrin immunoreactivity on the filters was quantitated by densitometry.

[5] = molecular target: T3, Calpain I (Homo sapiens, UniProt P07384); assay: Calpain I KI (Table 1B(ii)); type: biochemical; settings: Table 1B(ii)
T3 sequence (P07384 1-714): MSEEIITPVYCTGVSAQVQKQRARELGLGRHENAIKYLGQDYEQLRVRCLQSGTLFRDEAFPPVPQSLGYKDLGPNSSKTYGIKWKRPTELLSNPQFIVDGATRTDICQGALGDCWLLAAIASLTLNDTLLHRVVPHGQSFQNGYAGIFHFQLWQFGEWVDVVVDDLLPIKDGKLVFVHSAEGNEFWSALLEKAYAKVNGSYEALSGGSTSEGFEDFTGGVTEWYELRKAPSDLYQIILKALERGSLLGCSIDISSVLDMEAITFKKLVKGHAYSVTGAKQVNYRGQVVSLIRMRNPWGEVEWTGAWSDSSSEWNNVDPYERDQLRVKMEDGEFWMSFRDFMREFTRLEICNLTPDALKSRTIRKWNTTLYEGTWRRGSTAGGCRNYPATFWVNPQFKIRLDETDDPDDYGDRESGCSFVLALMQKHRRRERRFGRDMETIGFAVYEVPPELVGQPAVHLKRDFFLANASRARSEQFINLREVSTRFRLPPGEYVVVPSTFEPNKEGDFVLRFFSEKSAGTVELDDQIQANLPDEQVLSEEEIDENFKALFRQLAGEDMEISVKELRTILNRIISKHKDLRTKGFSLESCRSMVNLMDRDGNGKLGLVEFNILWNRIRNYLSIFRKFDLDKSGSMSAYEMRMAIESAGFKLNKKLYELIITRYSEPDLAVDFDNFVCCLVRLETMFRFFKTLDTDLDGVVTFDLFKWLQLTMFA
T3 sequence (P04632 1-268 partner): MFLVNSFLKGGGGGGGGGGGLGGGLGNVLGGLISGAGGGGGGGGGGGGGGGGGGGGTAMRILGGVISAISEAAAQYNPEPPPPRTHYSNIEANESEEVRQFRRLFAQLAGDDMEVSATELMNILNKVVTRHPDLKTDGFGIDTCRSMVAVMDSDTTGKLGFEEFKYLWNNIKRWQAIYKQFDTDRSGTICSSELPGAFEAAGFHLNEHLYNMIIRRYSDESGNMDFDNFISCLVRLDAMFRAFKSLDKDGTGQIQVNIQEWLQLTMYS
Description: (§3) We tested the ability of an additional group of Peptide Keto-Compounds to inhibit several proteases in order to evaluate their specificity for Calpain.

[6] = molecular target: T2, Cathepsin B; assay: Cathepsin B KI (Table 1B(ii)); type: biochemical; settings: read-out: KI CathB
Description: as §3

[7] = molecular target: Chym (Bos taurus, UniProt P00766); assay: Chym KI (Table 1B(ii)); type: biochemical
Description: as §3

[8] = molecular target: PP Elastase (Sus scrofa, UniProt P00772); assay: PP Elastase KI (Table 1B(ii)); type: biochemical
PP Elastase, sequence (P00772 27-266): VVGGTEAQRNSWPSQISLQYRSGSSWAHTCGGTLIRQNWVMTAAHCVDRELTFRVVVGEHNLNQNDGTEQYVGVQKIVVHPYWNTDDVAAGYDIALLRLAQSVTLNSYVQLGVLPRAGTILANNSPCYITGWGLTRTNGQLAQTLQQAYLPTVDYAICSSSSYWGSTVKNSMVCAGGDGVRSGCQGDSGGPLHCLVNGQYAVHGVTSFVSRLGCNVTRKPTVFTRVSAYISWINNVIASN
Description: as §3

[9] = Stability in plasma; type: in vitro ADME; settings: unit assumed
Description: We determined the haft-life of several Peptide Keto-Compounds in both plasma and liver homogenates.

[10] = molecular target: Calpain II; assay: Calpain II KI (Table 1B(ii)); type: biochemical
Description: as §3

[11] = 0.05M Tris-HCl pH 7.5, 2 mM EDTA, 1% DMSO, substrate Nα-Benzoyl-Arg-AMC, read-out: Ki P (Papain)
[12] = 50 mM Tris-HCl pH 7.5, 20 mM EDTA, 9% DMSO, substrate Nα-Benzoyl-Arg-NA, read-out: Ki P (Papain), values marked e

Row | Structure (SMILES) | Ki [1, 11] [µM] | Ki [2] [µM] | Ki [5] [µM] | Ki [6] [µM] | Ki [7] [µM] | Ki [8] [µM] | t1/2 plasma [9] [min] | inhibition of Calpain within platelets ([4]; 100 μM) | also measured
1 | CCCC(NC(=O)C(C)NC(=O)C(C)NC(=O)OCc1ccccc1)C(=O)C(=O)OCC (racemic) [Z-Ala-Ala-DL-Nva-COOEt, Z-Ala-Ala-DL-Nva-CO2 Et] | 30 | 0.1 | – | – | – | – | – | – | –
2 | CCOC(=O)C(=O)C(Cc1ccccc1)NC(=O)c1ccccc1 (racemic) [Bz-DL-Phe-COOEt, Bz-DL-Phe-CO2 Et] | – | 64 | – | – | – | – | – | – | Ki [1, 12]: 500 µM; inhibition of spectrin proteolysis in crude brain extracts [3]: significant inhibition; effect on intracellular (platelet) Calpain [4]: failed to exhibit Calpain inhibitory activity
3 | CCOC(=O)C(=O)C(C)NC(=O)[C@@H]1CCCN1C(=O)[C@H](C)NC(=O)OCc1ccccc1 (mixture of isomers) [Z-Ala-Pro-DL-Ala-COOEt, Z-Ala-Pro-DL-Ala-CO2 Et] | 26 | 66 | – | – | – | – | – | – | –
4 | COC(=O)CCC(=O)NC(C(=O)N1CCCC1C(=O)NC(Cc1ccccc1)C(=O)C(=O)OC)C(C)C (racemic) [MeO-Suc-Val-Pro-DL-Phe-COOMe, MeO-Suc-Val-Pro-DL-Phe-CO2 Me] | 1.1 | 0.1 | – | – | – | – | – | – | Ki [1, 12]: 2.9 µM; inhibition of spectrin proteolysis in crude brain extracts [3]: significant inhibition; effect on intracellular (platelet) Calpain [4]: failed to exhibit Calpain inhibitory activity
5 | CCOC(=O)C(=O)C(Cc1ccccc1)NC(=O)C(Cc1ccccc1)NC(=O)OCc1ccccc1 (racemic) [Z-Phe-DL-Phe-COOEt] | 1.8 | 0.1 | – | – | – | – | – | – | –
6 | CCOC(=O)C(=O)[C@H](CC)NC(=O)[C@H](CC(C)C)NC(=O)[C@H](CC(C)C)NS(=O)(=O)c1ccc(C)cc1 [Tos-Leu-Leu-Abu-COOEt] | – | – | 33 | 69 | 25 | 28 | 30 | – | IC50 [4]: 30 µM
7 | CCCCOC(=O)C(=O)[C@H](Cc1ccccc1)NC(=O)[C@H](CC(C)C)NC(=O)OCc1ccccc1 [Z-Leu-Phe-COOnBu, Z-Leu-Phe-CO2 Bu] | – | – | 5 | 15 | 0.15 | > 100 | 7.7 | significant inhibition | Ki [10]: 1.1 µM; platelet assay, semi-quantitative ([4]; semi-quantitative, 100 μM): +++
8 | CCOC(=O)C(=O)C(C)NC(=O)C(Cc1ccccc1)NC(=O)OCc1ccccc1 (racemic) [Z-Phe-DL-Ala-COOEt] | 3.6 | 3.2 | – | – | – | – | – | – | –
9 | CCC(NC(=O)[C@H](C)NC(=O)[C@H](C)NC(=O)OCc1ccccc1)C(=O)C(=O)OCc1ccccc1 (mixture of isomers) [Z-Ala-Ala-DL-Abu-COOBzl, Z-Ala-Ala-DL-Abu-CO2 Bzl] | 30 | 60 | – | – | – | – | – | significant inhibition | –
10 | CCOC(=O)C(=O)C(CC)NC(=O)C(CC(C)C)NC(=O)C(CC(C)C)NS(=O)(=O)c1ccc2ccccc2c1 (stereo not drawn) [2-NapSO2 -Leu-Leu-Abu-COOEt] | – | – | 16 | 25 | 35 | 47 | > 60 | significant inhibition | Ki [10]: 1.4 µM; IC50 [4]: 100 µM
